Key:
AChE (from electric eel) = target: T1, AChE (from electric eel) (Electrophorus electricus, UniProt O42275); test: biochemical; settings: for IC50: AChE from electric eel, mean ± SD of three experiments, read-out: AChE Inhibition (IC50)
T1 construct: AChE (from electric eel); purchased Sigma Chemical Company (St. Louis, MO, USA)
Method: (§1) The ChE inhibitory activity of the test compounds was determined using the modified Ellman’s method. The compounds were dissolved in DMSO (10 mmol/L) and then diluted with PB (phosphate buffer) solution to attain a range of final concentrations. […] Briefly, 100 μL of different concentrations of the test or standard compounds and 100 μL of AChE/BuChE (0.5 U/mL) were added into 48-well plates and then co-incubated at 37 °C for 30 min. […] All concentrations mentioned are final.

[1] = target: T2, BuChE (from equine serum) (Equus caballus, UniProt P81908); test: biochemical; settings: mean ± SD of three experiments, read-out: BuChE Inhibition (IC50)
T2 construct: BuChE (from equine serum); purchased Sigma Chemical Company (St. Louis, MO, USA); host or cells: equine serum
T2 sequence (P81908 whole entry): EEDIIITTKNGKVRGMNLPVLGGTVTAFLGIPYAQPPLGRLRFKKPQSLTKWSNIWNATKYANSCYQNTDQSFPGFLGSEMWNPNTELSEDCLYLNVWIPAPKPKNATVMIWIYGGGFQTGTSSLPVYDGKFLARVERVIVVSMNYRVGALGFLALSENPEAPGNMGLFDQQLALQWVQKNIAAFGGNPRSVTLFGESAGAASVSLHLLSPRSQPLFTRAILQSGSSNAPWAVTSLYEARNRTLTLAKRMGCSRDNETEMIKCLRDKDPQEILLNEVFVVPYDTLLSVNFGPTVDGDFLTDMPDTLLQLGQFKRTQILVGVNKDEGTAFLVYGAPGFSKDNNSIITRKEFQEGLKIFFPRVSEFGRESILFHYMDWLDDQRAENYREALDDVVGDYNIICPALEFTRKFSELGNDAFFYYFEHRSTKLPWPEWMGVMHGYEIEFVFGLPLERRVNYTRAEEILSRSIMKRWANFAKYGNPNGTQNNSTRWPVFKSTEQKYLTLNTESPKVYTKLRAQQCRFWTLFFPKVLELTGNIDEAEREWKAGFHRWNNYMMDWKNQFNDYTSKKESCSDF
Method: as §1

H2O2-induced PC12 cells = test: Neuroprotection against H2O2-induced PC12 cell injury (MTT); type: cell-based; settings: H2O2 250 μM, mean ± SEM
Method: Neuroprotection assay is similar to cytotoxicity. Oxidative cellular damage caused by H2O2 has become one of the important methods to study oxidative damage in neural cells. PC12 cells were seeded into a 96-well plate at a density of 5.0 × 10^3 cells per well. After the cells were incubated overnight, the old medium was discarded. […] After incubating overnight, 20 μL of MTT solution (5 mg/mL, Sigma-Aldrich) was added per well, and the cells were incubated for an additional 4 h. Afterwards, the supernatant was removed and 150 μL of DMSO was added. The 96-well plate was placed on the shaker for 10–15 min, and then the absorbance at 492 nm was measured by a microplate reader.

PC12 cells = test: Cytotoxicity in PC12 cells (MTT); type: cell-based
Method: The cytotoxicity and neuroprotective effects of the compounds on PC12 cells were evaluated by MTT assay. PC12 cells were seeded into a 96-well plate at a density of 5.0 × 10^3 cells per well. After the cells were incubated overnight, the old medium was discarded. The cells were incubated for another 24 h with fresh medium containing compounds at a concentration of 30 or 50 μM. A total of 20 μL of MTT solution (5 mg/mL, Sigma-Aldrich, Shanghai, China) was then added per well, and the cells were incubated for an additional 4 h. Afterwards, the supernatant was removed and 150 μL of DMSO was added to solubilize formazan crystals. The 96-well plate was placed on the shaker for 10–15 min, and then the absorbance at 492 nm was measured by a microplate reader.

T1 sequence (O42275 24-633): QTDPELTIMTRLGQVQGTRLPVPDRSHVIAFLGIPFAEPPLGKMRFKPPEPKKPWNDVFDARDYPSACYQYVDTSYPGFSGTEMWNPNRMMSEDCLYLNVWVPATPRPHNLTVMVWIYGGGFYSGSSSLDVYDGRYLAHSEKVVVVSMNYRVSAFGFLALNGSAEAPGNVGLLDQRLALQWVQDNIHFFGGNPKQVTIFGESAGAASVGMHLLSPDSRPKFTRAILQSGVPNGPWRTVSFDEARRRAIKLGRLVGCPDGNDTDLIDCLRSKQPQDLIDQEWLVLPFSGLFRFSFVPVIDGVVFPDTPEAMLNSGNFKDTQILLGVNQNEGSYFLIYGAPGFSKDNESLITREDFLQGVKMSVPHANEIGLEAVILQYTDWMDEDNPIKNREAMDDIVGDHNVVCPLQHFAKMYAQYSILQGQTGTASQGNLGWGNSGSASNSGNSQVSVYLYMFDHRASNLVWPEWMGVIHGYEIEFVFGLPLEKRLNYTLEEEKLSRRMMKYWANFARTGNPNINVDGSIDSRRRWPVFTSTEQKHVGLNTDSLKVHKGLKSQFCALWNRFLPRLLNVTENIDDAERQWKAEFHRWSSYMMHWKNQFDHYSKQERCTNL

COc1ccc(S(=O)(=O)Nc2ccc3c(c2)C(=O)c2nc4ccccc4c(=O)n2-3)cc1OC [4k]
IC50 (AChE (from electric eel)): 25.4 ± 1.53 µM | IC50 [1]: > 50 µM | H2O2-Induced PC12 Cell Viability (% of Control) (H2O2-induced PC12 cells; compound 10 μM): 44.35 ± 1.5 % of Control | H2O2-Induced PC12 Cell Viability (% of Control) (H2O2-induced PC12 cells; compound 30 μM): 46.23 ± 0.6 % of Control | Cell Viability (% of Control) (PC12 cells; compound 30 μM): 98.8 ± 1.9 % of Control | Cell Viability (% of Control) (PC12 cells; compound 50 μM): 98.2 ± 3.4 % of Control

COc1ccc(S(=O)(=O)Nc2ccc3c(c2)C(=O)c2nc4ccccc4c(=O)n2-3)c(OC)c1 [4l]
IC50 (AChE (from electric eel)): 18.6 ± 1.77 µM | IC50 [1]: > 50 µM | H2O2-Induced PC12 Cell Viability (% of Control) (H2O2-induced PC12 cells; compound 10 μM): 36.35 ± 1.6 % of Control | H2O2-Induced PC12 Cell Viability (% of Control) (H2O2-induced PC12 cells; compound 30 μM): 39.84 ± 2.8 % of Control | Cell Viability (% of Control) (PC12 cells; compound 30 μM): 100.2 ± 3.1 % of Control | Cell Viability (% of Control) (PC12 cells; compound 50 μM): 99.8 ± 2.7 % of Control

O=C1c2cc(NS(=O)(=O)c3ccc(OC(F)(F)F)cc3)ccc2-n2c1nc1ccccc1c2=O [4m]
IC50 (AChE (from electric eel)): 7.75 ± 0.21 µM | IC50 [1]: 10.2 ± 1.24 µM | H2O2-Induced PC12 Cell Viability (% of Control) (H2O2-induced PC12 cells; compound 10 μM): 37.89 ± 4.3 % of Control | H2O2-Induced PC12 Cell Viability (% of Control) (H2O2-induced PC12 cells; compound 30 μM): 44.98 ± 2.5 % of Control | Cell Viability (% of Control) (PC12 cells; compound 30 μM): 99.6 ± 0.8 % of Control | Cell Viability (% of Control) (PC12 cells; compound 50 μM): 99.3 ± 2.1 % of Control

O=C1c2cc(NS(=O)(=O)c3ccccc3OC(F)(F)F)ccc2-n2c1nc1ccccc1c2=O [4n]
IC50 (AChE (from electric eel)): 5.92 ± 0.56 µM | IC50 [1]: 4.93 ± 0.35 µM | H2O2-Induced PC12 Cell Viability (% of Control) (H2O2-induced PC12 cells; compound 10 μM): 46.53 ± 1.2 % of Control | H2O2-Induced PC12 Cell Viability (% of Control) (H2O2-induced PC12 cells; compound 30 μM): 52.84 ± 1.8 % of Control | Cell Viability (% of Control) (PC12 cells; compound 30 μM): 99.9 ± 0.7 % of Control | Cell Viability (% of Control) (PC12 cells; compound 50 μM): 99.7 ± 1.8 % of Control

O=C1c2cc(NS(=O)(=O)c3ccccc3C(F)(F)F)ccc2-n2c1nc1ccccc1c2=O [4o]
IC50 (AChE (from electric eel)): 2.45 ± 0.25 µM | Selective Index, IC50 (BChE)/IC50 (AChE) (AChE (from electric eel); AChE selectivity index): 3.5 | IC50 [1]: 8.61 ± 1.2 µM | H2O2-Induced PC12 Cell Viability (% of Control) (H2O2-induced PC12 cells; compound 10 μM): 42.32 ± 0.7 % of Control | H2O2-Induced PC12 Cell Viability (% of Control) (H2O2-induced PC12 cells; compound 30 μM): 50.5 ± 0.5 % of Control | Cell Viability (% of Control) (PC12 cells; compound 30 μM): 99.6 ± 2.7 % of Control | Cell Viability (% of Control) (PC12 cells; compound 50 μM): 98.2 ± 1.7 % of Control

O=C1c2cc(NS(=O)(=O)c3c(Cl)cccc3Cl)ccc2-n2c1nc1ccccc1c2=O [4p]
IC50 (AChE (from electric eel)): 0.62 ± 0.09 µM | IC50 [1]: > 50 µM | H2O2-Induced PC12 Cell Viability (% of Control) (H2O2-induced PC12 cells; compound 10 μM): 48.49 ± 4.5 % of Control | H2O2-Induced PC12 Cell Viability (% of Control) (H2O2-induced PC12 cells; compound 30 μM): 65.6 ± 2.2 % of Control | Cell Viability (% of Control) (PC12 cells; compound 30 μM): 99.6 ± 2.7 % of Control | Cell Viability (% of Control) (PC12 cells; compound 50 μM): 99.3 ± 2.9 % of Control

O=C1c2ccccc2-n2c1nc1ccc(NS(=O)(=O)c3ccccc3)cc1c2=O [8a]
IC50 (AChE (from electric eel)): 14 ± 1.67 µM | IC50 [1]: > 50 µM | H2O2-Induced PC12 Cell Viability (% of Control) (H2O2-induced PC12 cells; compound 10 μM): 39.65 ± 3.1 % of Control | H2O2-Induced PC12 Cell Viability (% of Control) (H2O2-induced PC12 cells; compound 30 μM): 50.98 ± 1.8 % of Control | Cell Viability (% of Control) (PC12 cells; compound 30 μM): 100.1 ± 1.5 % of Control | Cell Viability (% of Control) (PC12 cells; compound 50 μM): 99.8 ± 1.7 % of Control

Cc1ccc(S(=O)(=O)Nc2ccc3nc4n(c(=O)c3c2)-c2ccccc2C4=O)cc1 [8b]
IC50 (AChE (from electric eel)): 4.55 ± 0.8 µM | IC50 [1]: > 50 µM | H2O2-Induced PC12 Cell Viability (% of Control) (H2O2-induced PC12 cells; compound 10 μM): 42.01 ± 1.7 % of Control | H2O2-Induced PC12 Cell Viability (% of Control) (H2O2-induced PC12 cells; compound 30 μM): 51.37 ± 2.1 % of Control | Cell Viability (% of Control) (PC12 cells; compound 30 μM): 101.2 ± 3.1 % of Control | Cell Viability (% of Control) (PC12 cells; compound 50 μM): 99.8 ± 2.4 % of Control

CC(C)(C)c1ccc(S(=O)(=O)Nc2ccc3nc4n(c(=O)c3c2)-c2ccccc2C4=O)cc1 [8c]
IC50 (AChE (from electric eel)): 15.8 ± 2.6 µM | IC50 [1]: > 50 µM | H2O2-Induced PC12 Cell Viability (% of Control) (H2O2-induced PC12 cells; compound 10 μM): 39.10 ± 4.5 % of Control | H2O2-Induced PC12 Cell Viability (% of Control) (H2O2-induced PC12 cells; compound 30 μM): 49.64 ± 4.1 % of Control | Cell Viability (% of Control) (PC12 cells; compound 30 μM): 98.4 ± 1.9 % of Control | Cell Viability (% of Control) (PC12 cells; compound 50 μM): 96.7 ± 1.9 % of Control

CC(C)c1cc(C(C)C)c(S(=O)(=O)Nc2ccc3nc4n(c(=O)c3c2)-c2ccccc2C4=O)c(C(C)C)c1 [8d]
IC50 (AChE (from electric eel)): > 50 µM | IC50 [1]: > 50 µM | H2O2-Induced PC12 Cell Viability (% of Control) (H2O2-induced PC12 cells; compound 10 μM): 39.65 ± 5.2 % of Control | H2O2-Induced PC12 Cell Viability (% of Control) (H2O2-induced PC12 cells; compound 30 μM): 53.26 ± 1.4 % of Control | Cell Viability (% of Control) (PC12 cells; compound 30 μM): 99.8 ± 0.7 % of Control | Cell Viability (% of Control) (PC12 cells; compound 50 μM): 98.7 ± 2.6 % of Control
